Structures can show the parent of a compound that is named as a salt.

This experiment deals with monoamine oxidase (MAO). Put plainly: MAO inhibition in vitro (brain). It counts as biochemical. The conditions noted are these: rat brain homogenate, 14C-5-HT or 14C-PEA as substrate (which one not given), pH 7.4, 37° C., 30 min pre-incubation, 10 min incubation. How it is done:
The MAO inhibiting activity of the compounds in accordance with the invention can be determined using standard methods.
The preparations to be tested were investigated in the in vitro test described hereinafter, which was based on the method of R. J. Wurtmann and J. A. Axelrod [Biochem. Pharmac. 12, 1439-41 (1963).
Isolated rat brains are homogenized in 0.1 molar potassium phosphate buffer (pH 7.4) in the ratio 1:9 (weight/volume), whereupon the homogenate is diluted with the same buffer in the ratio 1:4 (volume/volume) and stored at -20° C. A mixture of the following composition is used for the incubation:
100 μl of 1M phosphate buffer (pH 7.4);
100 μl of solubilizate of the substance to be tested in water or in aqueous dimethyl sulfoxide;
50 μl of rat brain homogenate; and as the substrate
50 μl of ^14 C-labelled serotonin (5-HT) or ^14 C-phenylethylamine (PEA), in each instance 100,000 decay per minute, corresponding to a final concentration of 2·10^-4 mol/l and, respectively, 2·10^-5 mol/l.
A pre-incubation at 37° C. is effected for 30 minutes prior to the addition of the substrate. The incubation (in the presence of the substrate) is likewise effected at 37° C. and lasts for 10 minutes. The reaction is stopped by the addition of 200 μl of 2N hydrochloric acid. In order to extract the deaminated product, the mixture is shaken for 10 minutes with 5 ml of diethyl ether or with 5 ml of n-heptane depending on whether 5-HT or PEA is used as the substrate, whereupon the mixture is centrifuged, the aqueous phase is frozen in a dry-ice bath and the organic phase is transferred into a counting glass.
The activity of the MAO in comparison to the control homogenates is determined on the basis of the β-counter values.
Under the above test conditions the activity is linear with respect to time and to the concentration of the homogenizate. The IC50 values were determined graphically as a log of the concentration-activity curve. The IC50 was defined as that concentration of a substance to be tested which reduces the activity of the MAO upon the substrate 5-HT or PEA by 50%.
As to `COCC1CN(c2ccc([C@H]3CC[C@H](OC)CC3)cc2)C(=O)O1` (stereo partly drawn) [Example 16], 6 nM corresponded to half-maximal inhibition (IC50).

`COC[C@H]1CN(c2ccc(C3CCCCC3)cc2)C(=O)O1` [Example 6, (R)-3-(4-Cyclohexyl-phenyl)-5-methoxymethyl-oxazolidin-2-one] gave an IC50 of 0.1 nM. This IC50 is about 60-fold lower than that of the molecule before. The same measure for `COCC1CN(c2ccc(C3CCC(CO)CC3)cc2)C(=O)O1` (racemic) [Example 38, (RS)-3-[4-(Cis- and trans-4-Hydroxymethyl-cyclohexyl)-phenyl]-5-methoxymethyl-oxazolidin-2-one]: 3 nM.

As to `COC[C@H]1CN(c2ccc([C@H]3CC[C@H](OCC#N)CC3)cc2)C(=O)O1` [Example 63, (R)-[trans-4-[4-(5-Methoxymethyl-2-oxo-oxazolidin-3-yl)-phenyl]-cyclohexyloxy]-acetonitrile], inhibition was half-maximal at 1.6 nM (IC50). Against the preceding molecule, the IC50 is about 1.9-fold lower.

Take `COCC1CN(c2ccc(C3CCN(C(=O)/C=C/c4ccccc4)CC3)cc2)C(=O)O1` (racemic) [Example 59, (RS)-4-[4-(5-Methoxymethyl-2-oxo-oxazolidin-3-yl)-phenyl]-1-(1-oxo-3-phenyl-2,(E)-propenyl)-piperidine]: the 50% inhibitory concentration (IC50) came out at 10 nM. The same measure for `COCC1CN(c2ccc(C3CCCCC3)cc2)C(=O)O1` (racemic) [Example 2, (RS)-3-(4-Cyclohexyl-phenyl)-5-methoxymethyl-oxazolidin-2-one]: 2 nM; for `O=C1OC(CO)CN1c1ccc(C2CCCCC2)cc1` (racemic) [Example 1, (RS)-3-(4-Cyclohexyl-phenyl)-5-hydroxymethyl-oxazolidin-2-one]: 8.5 nM.

Turning to `COC[C@H]1CN(c2ccc(C3CCC(=O)CC3)cc2)C(=O)O1` [Example 14, (R)-3-[4-(4-Oxo-cyclohexyl)-phenyl]-5-methoxymethyl-oxazolidin-2-one], the IC50 was found to be 1 nM. The value for `COCC1CN(c2ccc([C@H]3CC[C@H](O)CC3)cc2)C(=O)O1` (mixture of isomers) [Example 8, (RS)-3-[4(trans-4-Hydroxy-cyclohexyl)-phenyl]-5-methoxymethyl-oxazolidin-2-one] was 8.4 nM; that for `COC[C@H]1CN(c2ccc(OCC[C@@H](O)C(F)(F)F)cc2)C(=O)O1` [Befloxaton, reference compound] was 1.9 nM. The value for `COCC1CN(c2ccc([C@H]3CC[C@H](OCCC#N)CC3)cc2)C(=O)O1` (mixture of isomers) [Example 30, (RS)-3-[trans-4-[4-(5-Methoxymethyl-2-oxo-Oxazolidin-3-yl)-phenyl]cyclohexyloxy]-propionitrile] was 5 nM. The same measure for `COCC1CN(c2ccc(C3CCC(C)(O)CC3)cc2)C(=O)O1` (stereo not drawn) [Example 39, (RS)-3-[4-(cis or trans-4-Hydroxy-4-methyl-cyclohexyl)-phenyl]-5-methoxymethyl-oxazolidin-2-one]: 4 nM; for `COC[C@H]1CN(c2ccc([C@H]3CC[C@H](O)CC3)cc2)C(=O)O1` [Example 15, (R)-3-[4-(trans-4-Hydroxy-cyclohexyl)-phenyl]-5-methoxymethyl-oxazolidin-2-one]: 8.5 nM; for `COCC1CN(c2ccc([C@H]3CC[C@H](OCCN)CC3)cc2)C(=O)O1` (stereo partly drawn) [Example 68, (RS)-3-[trans-4-[4-(5-Methoxymethyl-2-oxo-oxazolidin-3-yl)-phenyl]-cyclohexyloxy]ethanamine.HCl]: 74 nM. In the case of `COC[C@H]1CN(c2ccc([C@H]3CC[C@H](CC#N)CC3)cc2)C(=O)O1` [Example 50], the concentration for half-maximal inhibition (IC50) was found to be 1 nM.

On to `COCC1CN(c2ccc([C@H]3CC[C@H](OCC#N)CC3)cc2)C(=O)O1` (mixture of isomers) [Example 66, (RS)-[trans-4-[4-(5-Methoxymethyl-2-oxo-oxazolidin-3-yl)-phenyl]-cyclohexyloxy]-acetonitrile], for which the IC50 came out at 2 nM. The value for `COCC1CN(c2ccc([C@H]3CC[C@H](CC#N)CC3)cc2)C(=O)O1` (mixture of isomers) [Example 49, (RS)-[trans-4-[4-(5-Methoxymethyl-2-oxo-oxazolidin-3-yl)-phenyl]-cyclohexyl]-acetonitrile] was 0.9 nM; that for `COCC1CN(c2ccc([C@H]3CC[C@H](OC(C)=O)CC3)cc2)C(=O)O1` (mixture of isomers) [Example 33, Acetic acid (RS)-trans-4-[4-(5-methoxymethyl-2-oxo-oxazolidin-3-yl)-phenyl]-cyclohexylester] was 10 nM; that for `COCC1CN(c2ccc(C3CCC(=O)CC3)cc2)C(=O)O1` (racemic) [Example 7, (RS)-3-[4-(4-Oxo-cyclohexyl)-phenyl]-5-methoxymethyl-oxazolidin-2-one] was 10 nM. Molecule `COCC1CN(c2ccc(C3CC4C=CC3C4)cc2)C(=O)O1` (stereo not drawn) [Example 18, 3-[(1RS,2SR,4RS)-4-Bicyclo[2.2.1]hept-5-en-2-yl-phenyl]-5-methoxymethyl-oxazolidin-2-one (R:S=1:1)] displayed a 50% inhibitory concentration (IC50) of 9 nM. The same measure for `COC[C@H]1CN(c2ccc([C@H]3CC[C@H](OCCCN)CC3)cc2)C(=O)O1` [Example 71, (R)-3-[trans-4-(3-Amino-propoxy)-cyclohexyl]-phenyl]-5-methoxymethyl-oxazolidin-2-one hydrochloride]: 33 nM.

As usually defined, the IC50 is the midpoint of a concentration-inhibition curve.

Values taken from patent publication US5574055A, “Oxazolidinone derivatives” (Hoffmann-La Roche Inc., priority 1993, dated 1996).
